Source: patent US6440989B2, “Phenyl-substituted tricyclic inhibitors of farnesyl-protein transferase” (Schering Corporation, priority 1997, dated 2002)

Target: T1, partially purified rat brain farnesyl protein transferase (FPT) (Rattus norvegicus, UniProt Q02293+Q04631)
T1 construct: partially purified rat brain farnesyl protein transferase (FPT); from tissue; host or cells: rat brain
Test: In vitro enzyme assay: inhibition of Ras-CVLS farnesylation by farnesyl protein transferase
Format: biochemical
Experimental: 1. In vitro enzyme assays: FPT IC50 (inhibition of farnesyl protein transferase, in vitro enzyme assay) are determined by the methods disclosed in WO/10515 or WO 95110516.

`C=Cc1cnc2c(c1)CCc1cc(C)cc(OC)c1C2C1CCN(S(C)(=O)=O)CC1` (centres unmarked) [Example 28, 4-(3-Ethenyl-6,11-dihydro-10-methoxy-8-methyl-5H-benzo[5,6]cyclohepta[1,2-b]pyridin-11-yl)-1-(methylsulfonyl)piperidine] was tested, and the IC50 was 132 nM.
For `Cc1ccc(C)c2c1CCc1cc(Br)cnc1C2N1CCN(C(=O)Cc2cc[n+]([O-])cc2)CC1` (racemic) [Example 15, (+,−)-1-(3-Bromo-7,10-dimethyl-6,11-dihydro-5H-benzo[5,6]cyclohepta[1,2-b]pyridin-11-yl)-4-(4-pyridinylacetyl)piperazine N4-oxide], the IC50 was 130 nM.
For `Cc1cc(O)c2c(c1)CCc1cc(Br)cnc1C2C1CCN(C(=O)Cc2cc[n+]([O-])cc2)CC1` (racemic) [Example 9, (+,−)-4-(3-Bromo-10-hydroxy-8-methyl-5,6-dihydro-11H-benzo[5,6]cyclohepta[1,2-b]pyridin-11-yl)-1-(4-pyridinylacetyl)piperidine N1-oxide], the IC50 was 120 nM.
`COc1ccc2c(c1)CCc1cc(Br)cnc1C2N1CCN(C(=O)Cc2cc[n+]([O-])cc2)CC1` (racemic) [Example 17, (+,−)-1-(3-Bromo-6,11-dihydro-8-methoxy-5H-benzo[5,6]cyclohepta[1 ,2-b]pyridin-11-yl)-4-(4-pyridinylacetyl)piperazine N4-oxide] was tested, and the IC50 was 290 nM.
For `Cc1cc(C)c2c(c1)CCc1cc(Br)cnc1C2N1CCN(C(=O)Cc2cc[n+]([O-])cc2)CC1` (racemic) [Example 18, (+,−)-1-(3-Bromo-6,11-dihydro-8,10-dimethyl-5H-benzo[5,6]cyclohepta[1,2-b]pyridin-11-yl)-4-(4-pyridinylacetyl)piperazine N4-oxide], the IC50 was 43 nM.
Compound `COc1cc(C)cc2c1C(C1CCN(C(=O)Cc3cc[n+]([O-])cc3)CC1)c1ncccc1CC2` (racemic) [Example 4, (+,−)-4-(6,11-dihydro-10-methoxy-8-methyl-5H-benzo[5,6]cyclohepta[1,2-b]pyridin-11-yl)-1-(4-pyridinylacetyl)piperidine N-1 oxide] has an IC50 of 140 nM.
Work on `COc1cc(C)cc2c1C(C1CCN(C(=O)Cc3cc[n+]([O-])cc3)CC1)c1ncc(C(C)(C)O)cc1CC2` (racemic) [Example 23, (+,−)-4-[6,11-dihydro-3-(1-hydroxy-1-methylethyl)-10-methoxy-8-methyl-5H-benzo[5,6]cyclohepta[1,2-b]pyridin-11-yl]-1-(4-pyridinylacetyl)piperidine N1-oxide] yielded an IC50 of over 200 nM.
For `COc1cc(C)cc2c1C(N1CCN(C(=O)Cc3cc[n+]([O-])cc3)CC1)c1ncc(Br)cc1CC2` (single isomer, unassigned; (+)) [Example 20, (+)-1-(3-Bromo-10-methoxy-8-methyl-6,11-dihydro-5H-benzo[5,6]cyclohepta[1,2-b]pyridin-11-yl)-4-(4-pyridinylacetyl)piperazine N4-oxide, (+) enantiomer], the IC50 was over 180 nM.
`COc1cc(C)cc2c1C(=C1CCN(C(=O)Cc3cc[n+]([O-])cc3)CC1)c1ncc(C)cc1CC2` [Example 7, 4-(5,6-dihydro-10-methoxy-3,8-dimethyl-11H-benzo[5,6]cyclohepta[1,2-b]pyridin-11-ylidene)-1-(4-pyridinylacetyl)piperidine N1-oxide] gave an IC50 of 60 nM.
Work on `Cc1cc(Br)c2c(c1)CCc1cc(Br)cnc1C2(O)C1CCN(C(=O)Cc2cc[n+]([O-])cc2)CC1` (single isomer, unassigned; (+)) [Example 35, (+) 4-(3-Bromo-6,11-dihydro-11-hydroxy-10-bromo-8-methyl-5H-benzo[5,6]cyclohepta[1,2-b]pyridin-11-yl)-1-(4-pyridinylacetyl)piperidine N1-Oxide] yielded an IC50 of 10.8 nM.
With `COc1cc(C)c2c(c1)CCc1cc(Br)cnc1C2N1CCN(C(=O)Cc2cc[n+]([O-])cc2)CC1` (racemic) [Example 26, (+,−)-1-(3-Bromo-8-methoxy-10-methyl-6,11-dihydro-5H-benzo[5,6]cyclohepta[1 ,2-b]pyridin-11-yl)-4-(4-pyridinylacetyl)piperzazine N4-oxide] the IC50 was 58 nM.
